SMILES: NC(CCCCNS(=O)(=O)c1cc(S(=O)(=O)NCCCCC(N)C(=O)O)c2ccc3c(O)cc(O)c4ccc1c2c43)C(=O)O (stereo not shown)
- melting point: 210 to 212 °C (dec.)
